Test results from patent publication US20180271930A1, “METHOD FOR RAISING POULTRY” (priority 2015, published 2018).

Columns and labels:
myostatin = assay: Examination 3: myostatin mRNA expression in skeletal muscle cells in differentiation medium; format: cell-based, broiler chicks (Ross 308); conditions: 100 μM GSSG in differentiation medium; cells recovered 0, 12, 24 h; FIG. 2B, n=6
From the text: FIGS. 2A to 2D illustrate graphs showing the expression levels of genes related to skeletal muscle cell differentiation upon the addition of GSSG during the skeletal muscle cell differentiation period in Examination 3 (n=6). […] A relative value of the expression level of each factor is expressed as an average±standard deviation of values obtained by dividing the expression levels of each factor by the expression level of RPS9. Each different symbol denotes a significant difference in the […] multiple comparison test (P<0.05). Oxidized glutathione (GSSG) was added to a differentiation-promoting culture medium system of skeletal muscle cells collected from newly hatched broiler chicks (Ross 308, Ross Breeders Ltd.) (under culture conditions simulating the state of skeletal muscle cells of neonatal chicks), phosphorylation of signal factors was analyzed by Western blot, and the differentiation inhibition mechanism was investigated. Expression levels of MyoD, myostatin, IGF-I, and Pax7 as genes involved in myogenesis were determined. Pax7 is a muscle satellite cell marker. […] The expression level of Pax7 was determined by the method described in Examination 1 except that the primer set used herein was a primer set listed in the table below. […] The cells were recovered 0, 12, and 24 hours later, and the expression levels of genes involved in myogenesis were determined. […]

[1] = Examination 4: body weight of chicks raised until 35 days old after feeding GSSG or GSH for 3 days; format: in vivo, broiler chicks; conditions: 0.01% by mass additive in feed for 3 days; n = 6, average ± standard deviation
Description: Newly hatched broiler chicks (Ross Breeders Ltd.) were tested. A control group (=additive-free group), a GSSG addition group (0.01% by mass), and a GSH addition group (0.01% by mass) each consisting of 5 males and 5 females were set and fed with a feed composition for 3 days. […] At this timing, 2 males and 2 females in each group were slaughtered to collect blood and skeletal muscles. The gene expression levels of the MyoD family (myogenin, myostatin, and Pax7) were observed. […] Statistics were analyzed using a mixed model in consideration of a gender difference and an interaction between males and females. An ammonium salt was used as oxidized glutathione (GSSG). The GSSG contained 95.6% by mass of oxidized glutathione, and the content of reduced glutathione mixed therein was 0.1% by mass or less. […] A feed composition, for which the amount of oxidized glutathione (GSSG) added was set to 0.01% by mass, is described in Examination 1. A feed composition, for which the amount of reduced glutathione (GSH) added was set to 0.01% by mass, was prepared by adding 0.01% by mass of GSH, instead of 0.01% by mass of GSSG, to the GSSG-containing feed composition described in detail in Examination 1.

[2] = Examination 6: body weight at 21 days old after GSSG feed (0.01% or 0.05%) for 3 days; format: in vivo, broiler chicks; conditions: n = 12
Description: Newly hatched broiler chicks (Ross Breeders Ltd.) were fed with a feed composition containing GSSG at 0.01% by mass or 0.05% by mass for 3 days. […] Three groups, which were a control group, a GSSG addition group (0.01% by mass), and a GSSG addition group (0.05% by mass), were set. In each group, 6 males and 6 females were tested. Chicks received at 0 day old were fed with a test feed composition (initial-phase feed composition) during 72 hours after the receipt. […] Their body weights were measured. A feed composition used as an initial-phase feed composition, for which the level of GSSG was set to 0.01% by mass or […], is a composition prepared by adding GSSG at 0.01% by mass or 0.1% by mass to a composition (ME3,100 kcal/kg, CP21) containing corn, soybean meal, corn gluten meal, fat and oil, calcium carbonate (powder), tricalcium phosphate, dietary salt, DL-methionine, L-lysine chloride, choline chloride, and vitamins/minerals in accordance with the NRC requirements. The feed composition (ME3,100 kcal/kg, CP21) free of GSSG used in Examination 1 was used for the control group. […] An ammonium salt was used as GSSG. The GSSG contained 95.6% by mass of oxidized glutathione, and the content of reduced glutathione mixed therein was 0.1% by mass or less.

With oxidized glutathione [GSSG] the “mRNA expression level of myostatin vs control” value (myostatin) was “significant decrease”, the “Weight, 14 days old” value [1] was 524.5 ± 37.0 g and the “Weight, 35 days old” value [1] was 2164 ± 178 g. For the same substance, the 21-day-old weight ([2]; GSSG 0.01% by mass in feed for 3 days) was 961 ± 84 g and the 21-day-old weight ([2]; GSSG 0.05% by mass in feed for 3 days) was 986 ± 67 g.
